According to US20050112573A1, “Method of detecting toxic substance” (priority 2001, published 2005):

System: yeast genes (level of expressed mRNA)
Assay: DNA chip analysis of expressed mRNA of yeast genes after 2 h culture with a toxic chemical substance
Assay type: cell-based, Saccharomyces cerevisiae S288C
Protocol: Yeast (Saccharomyces cerevtisiae S288C (α SUC2mal mel gap2 CUP1)) were cultured at 25° C. on YPD medium (yeast extract 1%, polypepton 2%, glucose 2%). One of toxic chemical substances was added to the cell at logarithmic growth phase, and the cell was further cultured for two hours. Cell was cultured without any chemical substance in the same condition, and was used as control. Concentrations of the chemical substances were defined to inhibit the growth of the yeast but not lead to death.
After the completion of cultivation, the culture was centrifuged to collect the cells. To the cells, sodium acetate buffer (50 mM sodium acetate, 10 mM EDTA, 1% SDS) was added, and the mixture was shaken at 65° C. for five minutes, followed by returning to room temperature, and obtaining the supernatant, which procedure was repeated two times. To the supernatant, ½ amount of a solution of phenol/chloroform was added, and the mixture was centrifuged to give a supernatant, which was added with an equal amount of chloroform, and the mixture was centrifuged to give a supernatant. To the supernatant, an equal amount of isopropanol containing 0.3 M sodium acetate was added, and the mixture was allowed to stand at room temperature for 30 minutes, after which the mixture was centrifuged to give a sediment of the whole RNAs. Seventy % ethanol was added to the sediment, and the mixture was again centrifuged to give a sediment, which was then dried and dissolved in water. mRNA was isolated from the whole RNAs as followings. In view of the fact that a poly A chain is attached to the 3′ terminus of mRNA, a polynucleotide having a poly T structure which was immobilized on the surface of latex beads was used to trap the mRNA, and then the mRNA was washed and eluted with spine column (Oligotex-dT30<Super>mRNA Purification Kit, Takara). Reverse transcription of the mRNA was conducted with a reverse transcriptase (Super Script II Reverse Transcriptase; catalogue No. 18064-014, GibcoBRL) using fluorescence-labeled nucleotides to give cDNAs that were introduced with Cy3-dUTP or Cy5-dUTP during the reverse transcription.
The labeled cDNAs were dissolved in TE buffer (10 mM Tris-HCl/1 mM EDTA, pH8.0), and the solution was dropped on the DNA chip containing the whole genes of yeast (DNA Chip Research Inc. Japan) so that the cDNAs were hybridized on the DNA chip at 65° C. for over 12 hours. The fluoresces intensity of the DNA chip was read with a scanner, and the ratio relative to the fluorescence intensity resulting from the absence of chemical substance was estimated as the following, which is shown in Tables 1 to 9: [formula]
In the Tables, “Intensity” indicated in the rightmost column is a value of the level of expressed mRNA of each gene in control cells as divided by the average level of the expressions of the whole genes.

**Q.** With `S=C([S-])NCCNC(=S)[S-].[Zn+2]` [(11), zinc N,N′-ethylenebis(dithiocarbamate)] as the molecule, how does the “level of expressed mRNA in the presence of chemical substance/in its absence” value (shortened to “level … of chemical substance/in its absence”) (gene YGR282C) read?
**A.** Its value is 1.5.

**Q.** And the “The level of expressed mRNA in the presence of chemical substance/absence: YGR293C” value (gene YGR293C)?
**A.** The value was 0.6.

**Q.** And the “The level of expressed mRNA in the presence of chemical substance/absence: YHL006C” value (gene YHL006C)?
**A.** The value was 0.7.

**Q.** And the “The level of expressed mRNA in the presence of chemical substance/absence: YHL021C” value (gene YHL021C)?
**A.** Its value is 1.4.

**Q.** And the “The level of expressed mRNA in the presence of chemical substance/absence: YHL037C” value (gene YHL037C)?
**A.** Its value is 1.0.

**Q.** What about the “level … of chemical substance/in its absence” value (gene YHR037W) of the same molecule?
**A.** The value was 1.7.

**Q.** What about the “The level of expressed mRNA in the presence of chemical substance/absence: YHR083W” value (gene YHR083W) of the same molecule?
**A.** Its value is 1.3.

**Q.** And the “level … of chemical substance/in its absence” value (gene YHR092C)?
**A.** The value was 1.5.

**Q.** What about the “The level of expressed mRNA in the presence of chemical substance/absence: YHR095W” value (gene YHR095W) of the same molecule?
**A.** Its value is 1.3.

**Q.** And the “The level of expressed mRNA in the presence of chemical substance/absence: YHR105W” value (gene YHR105W)?
**A.** The value was 0.7.

**Q.** And the “The level of expressed mRNA in the presence of chemical substance/absence: YHR134W” value (gene YHR134W)?
**A.** The value was 0.7.

**Q.** And the “level … of chemical substance/in its absence” value (gene YHR137W)?
**A.** Its value is 0.6.

**Q.** What about the “The level of expressed mRNA in the presence of chemical substance/absence: YHR180W” value (gene YHR180W) of the same molecule?
**A.** The value was 1.4.

**Q.** And the “The level of expressed mRNA in the presence of chemical substance/absence: YHR181W” value (gene YHR181W)?
**A.** Its value is 1.3.

**Q.** And the “level … of chemical substance/in its absence” value (gene YHR190W)?
**A.** Its value is 1.3.

**Q.** And the “level … of chemical substance/in its absence” value (gene YIL033C)?
**A.** Its value is 1.8.

**Q.** What about the “The level of expressed mRNA in the presence of chemical substance/absence: YIL108W” value (gene YIL108W) of the same molecule?
**A.** Its value is 1.2.

**Q.** And the “The level of expressed mRNA in the presence of chemical substance/absence: YIL127C” value (gene YIL127C)?
**A.** Its value is 0.9.

**Q.** And the “level … of chemical substance/in its absence” value (gene YIL154C)?
**A.** The value was 1.2.

**Q.** And the “The level of expressed mRNA in the presence of chemical substance/absence: YIL165C” value (gene YIL165C)?
**A.** Its value is 1.1.

**Q.** What about the “level … of chemical substance/in its absence” value (gene YIL167W) of the same molecule?
**A.** The value was 1.9.

**Q.** And the “level … of chemical substance/in its absence” value (gene YIR035C)?
**A.** Its value is 1.3.

**Q.** And the “The level of expressed mRNA in the presence of chemical substance/absence: YJL017W” value (gene YJL017W)?
**A.** Its value is 1.4.

**Q.** And the “The level of expressed mRNA in the presence of chemical substance/absence: YJL032W” value (gene YJL032W)?
**A.** Its value is 1.8.

**Q.** And the “The level of expressed mRNA in the presence of chemical substance/absence: YJL037W” value (gene YJL037W)?
**A.** Its value is 1.6.

**Q.** And the “The level of expressed mRNA in the presence of chemical substance/absence: YJL049W” value (gene YJL049W)?
**A.** The value was 1.5.

**Q.** And the “level … of chemical substance/in its absence” value (gene YJL088W)?
**A.** The value was 0.9.

**Q.** What about the “The level of expressed mRNA in the presence of chemical substance/absence: YJL097W” value (gene YJL097W) of the same molecule?
**A.** Its value is 1.5.

**Q.** And the “level … of chemical substance/in its absence” value (gene YJL132W)?
**A.** The value was 1.4.

**Q.** And the “level … of chemical substance/in its absence” value (gene YJL196C)?
**A.** The value was 2.3.

**Q.** And the “The level of expressed mRNA in the presence of chemical substance/absence: YJR030C” value (gene YJR030C)?
**A.** Its value is 0.8.

**Q.** And the “The level of expressed mRNA in the presence of chemical substance/absence: YJR044C” value (gene YJR044C)?
**A.** The value was 1.9.

**Q.** And the “level … of chemical substance/in its absence” value (gene YJR142W)?
**A.** The value was 0.9.

**Q.** What about the “level … of chemical substance/in its absence” value (gene YJR148W) of the same molecule?
**A.** The value was 0.6.

**Q.** What about the “level … of chemical substance/in its absence” value (gene YJR159W) of the same molecule?
**A.** The value was 2.2.

**Q.** And the “The level of expressed mRNA in the presence of chemical substance/absence: YKL051W” value (gene YKL051W)?
**A.** Its value is 1.8.

**Q.** And the “The level of expressed mRNA in the presence of chemical substance/absence: YKL059C” value (gene YKL059C)?
**A.** Its value is 0.9.

**Q.** And the “level … of chemical substance/in its absence” value (gene YKL067W)?
**A.** Its value is 1.8.

**Q.** What about the “The level of expressed mRNA in the presence of chemical substance/absence: YKL090W” value (gene YKL090W) of the same molecule?
**A.** Its value is 2.3.

**Q.** And the “The level of expressed mRNA in the presence of chemical substance/absence: YKL094W” value (gene YKL094W)?
**A.** Its value is 1.3.

**Q.** And the “The level of expressed mRNA in the presence of chemical substance/absence: YKL097C” value (gene YKL097C)?
**A.** Its value is 0.6.

**Q.** And the “The level of expressed mRNA in the presence of chemical substance/absence: YKL100C” value (gene YKL100C)?
**A.** The value was 1.6.

**Q.** What about the “level … of chemical substance/in its absence” value (gene YKR039W) of the same molecule?
**A.** Its value is 1.9.

**Q.** And the “The level of expressed mRNA in the presence of chemical substance/absence: YKR040C” value (gene YKR040C)?
**A.** Its value is 0.8.

**Q.** What about the “The level of expressed mRNA in the presence of chemical substance/absence: YLR097C” value (gene YLR097C) of the same molecule?
**A.** Its value is 1.7.

**Q.** What about the “level … of chemical substance/in its absence” value (gene YLR142W) of the same molecule?
**A.** Its value is 3.8.

**Q.** And the “level … of chemical substance/in its absence” value (gene YLR180W)?
**A.** Its value is 1.7.

**Q.** And the “The level of expressed mRNA in the presence of chemical substance/absence: YLR226W” value (gene YLR226W)?
**A.** The value was 0.8.

**Q.** And the “level … of chemical substance/in its absence” value (gene YLR273C)?
**A.** Its value is 1.4.

**Q.** What about the “level … of chemical substance/in its absence” value (gene YLR300W) of the same molecule?
**A.** The value was 1.0.

**Q.** And the “level … of chemical substance/in its absence” value (gene YLR307W)?
**A.** The value was 0.8.

**Q.** And the “The level of expressed mRNA in the presence of chemical substance/absence: YLR338W” value (gene YLR338W)?
**A.** Its value is 0.9.

**Q.** What about the “The level of expressed mRNA in the presence of chemical substance/absence: YLR339C” value (gene YLR339C) of the same molecule?
**A.** The value was 1.6.

**Q.** What about the “The level of expressed mRNA in the presence of chemical substance/absence: YLR392C” value (gene YLR392C) of the same molecule?
**A.** Its value is 1.4.

**Q.** And the “The level of expressed mRNA in the presence of chemical substance/absence: YLR415C” value (gene YLR415C)?
**A.** Its value is 0.8.

**Q.** What about the “The level of expressed mRNA in the presence of chemical substance/absence: YLR427W” value (gene YLR427W) of the same molecule?
**A.** Its value is 0.8.

**Q.** And the “The level of expressed mRNA in the presence of chemical substance/absence: YML013W” value (gene YML013W)?
**A.** The value was 1.1.
